From PubChem BioAssay AID2060599 (Molecular Pharmacology Branch, DTP, NCI, 2025)
Where “and” joins values, the source holds several entries; their conditions need not be identical. Identical values can stand only once.

Test system: 817829-284-R-J1-PDC complex spheroids, viability
Assay: Anticancer human tumor 817829-284-R-J1-PDC patient-derived colon adenocarcinoma cell line growth inhibition [CLK]
Settings: for viability, T/C: stronger effect = lower value
In short: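 Multi-cell-type spheroids combined patient-derived tumor cells with HUVEC endothelial cells and human mesenchymal stem cells. Paired agents were dosed in half-log steps down from about clinical Cmax, or from 10 microM where Cmax was unknown.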

[1] = curve of first compound, second compound 0.0316 µM
[2] = curve of first compound, second compound 0.1 µM
[3] = curve of first compound, second compound 0.316 µM
[4] = curve of first compound, second compound 1 µM
[5] = curve of first compound, second compound 3.16 µM
[6] = curve of first compound, second compound 10 µM
[7] = second compound 0.0316 µM, first compound 0.0316 µM
[8] = second compound 0.0316 µM, first compound 0.1 µM
[9] = second compound 0.0316 µM, first compound 0.316 µM
[10] = second compound 0.0316 µM, first compound 1 µM
[11] = second compound 0.0316 µM, first compound 3.16 µM
[12] = second compound 0.0316 µM, first compound 10 µM
[13] = second compound 0.1 µM, first compound 0.0316 µM
[14] = second compound 0.1 µM, first compound 0.1 µM
[15] = second compound 0.1 µM, first compound 0.316 µM
[16] = second compound 0.1 µM, first compound 1 µM
[17] = second compound 0.1 µM, first compound 3.16 µM
[18] = second compound 0.1 µM, first compound 10 µM
[19] = second compound 0.316 µM, first compound 0.0316 µM
[20] = second compound 0.316 µM, first compound 0.1 µM
[21] = second compound 0.316 µM, first compound 0.316 µM
[22] = second compound 0.316 µM, first compound 1 µM
[23] = second compound 0.316 µM, first compound 3.16 µM
[24] = second compound 0.316 µM, first compound 10 µM
[25] = second compound 1 µM, first compound 0.0316 µM
[26] = second compound 1 µM, first compound 0.1 µM
[27] = second compound 1 µM, first compound 0.316 µM
[28] = second compound 1 µM, first compound 1 µM
[29] = second compound 1 µM, first compound 3.16 µM
[30] = second compound 1 µM, first compound 10 µM
[31] = second compound 3.16 µM, first compound 0.0316 µM
[32] = second compound 3.16 µM, first compound 0.1 µM
[33] = second compound 3.16 µM, first compound 0.316 µM
[34] = second compound 3.16 µM, first compound 1 µM
[35] = second compound 3.16 µM, first compound 3.16 µM
[36] = second compound 3.16 µM, first compound 10 µM
[37] = second compound 10 µM, first compound 0.0316 µM
[38] = second compound 10 µM, first compound 0.1 µM
[39] = second compound 10 µM, first compound 0.316 µM
[40] = second compound 10 µM, first compound 1 µM
[41] = second compound 10 µM, first compound 3.16 µM
[42] = second compound 10 µM, first compound 10 µM
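Also: spheroids exposed to the agents for seven days before readout.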

In the case of `CCCS(=O)(=O)Nc1ccc(F)c(C(=O)c2c[nH]c3ncc(-c4ccc(Cl)cc4)cc23)c1F` + CNC(=O)c1ccc(Nc2nc(OC3CCCC3)c3c(-c4ccc5nc(C)oc5c4)c[nH]c3n2)c(OC)c1, the IC50 [1] is reported as under 31.6 nM, the IC50 [2] is reported as under 31.6 nM and the IC50 [3] is reported as under 31.6 nM. For the same molecule, the IC50 [4] was under 31.6 nM, the IC50 [5] was under 31.6 nM and the IC50 [6] was under 31.6 nM. The viability, T/C [7] was 31.8%, the viability, T/C [8] was 23.5% and the viability, T/C [9] was 33.4%. For the same molecule, the viability, T/C [10] was 27%, the viability, T/C [11] was 33% and the viability, T/C [12] was 10.1%. For the same molecule, the viability, T/C [13] was 19.1%, the viability, T/C [14] was 16.2% and the viability, T/C [15] was 16.2%. For the same molecule, the viability, T/C [16] was 20.5%, the viability, T/C [17] was 21.1% and the viability, T/C [18] was 16.3%. For the same molecule, the viability, T/C [19] was 38%, the viability, T/C [20] was 22.6% and the viability, T/C [21] was 18%. It also gave a viability, T/C [22] of 15.2%, a viability, T/C [23] of 18.3% and a viability, T/C [24] of 15.7%. It also gave a viability, T/C [25] of 17.8%, a viability, T/C [26] of 15% and a viability, T/C [27] of 18.6%. For the same molecule, the viability, T/C [28] was 12.8%, the viability, T/C [29] was 11.6% and the viability, T/C [30] was 6.76%. For the same molecule, the viability, T/C [31] was 16.4%, the viability, T/C [32] was 15.9% and the viability, T/C [33] was 21.2%. The viability, T/C [34] was 22.2%, the viability, T/C [35] was 9.76% and the viability, T/C [36] was 12.3%. It also gave a viability, T/C [37] of 21.7%, a viability, T/C [38] of 17.4% and a viability, T/C [39] of 12%. The viability, T/C [40] was 17.2%, the viability, T/C [41] was 9.32% and the viability, T/C [42] was 5.05%.

In the case of `CNC(=O)c1ccc(Nc2nc(OC3CCCC3)c3c(-c4ccc5nc(C)oc5c4)c[nH]c3n2)c(OC)c1`, the viability, T/C (compound 0.0316 µM) is reported as 33.6% [middle of 8 runs], the viability, T/C (compound 0.1 µM) is reported as 28.2% [middle of 8 runs] and the viability, T/C (compound 0.316 µM) is reported as 26.3% [middle of 8 runs]. For the same molecule, the viability, T/C (compound 1 µM) was 24.2% [middle of 8 runs], the viability, T/C (compound 3.16 µM) was 20.1% [middle of 8 runs] and the viability, T/C (compound 10 µM) was 23.3% [middle of 8 runs]. For the same molecule, the IC50 (compound alone, run of 08/15/2023) was under 31.6 nM.

Work on `CC(CO)NC(=O)c1cc(-c2ccc(Cl)cc2)nn(-c2cnn(C)c2)c1=O` (stereo not drawn) + CN1CCN(c2cc(C(=O)Nc3cc4cc(-c5cnn(C)c5)ccc4cn3)ccn2)CC1 yielded an IC50 [1] of 3780 nM, an IC50 [2] of under 31.6 nM and an IC50 [3] of under 31.6 nM. For the same molecule, the IC50 [4] was under 31.6 nM, the IC50 [5] was under 31.6 nM and the IC50 [6] was under 31.6 nM. It also gave a viability, T/C [7] of 62.9%, a viability, T/C [8] of 71.7% and a viability, T/C [9] of 61.2%. It also gave a viability, T/C [10] of 78.3%, a viability, T/C [11] of 53.1% and a viability, T/C [12] of 33%. The viability, T/C [13] was 18.3%, the viability, T/C [14] was 15.8% and the viability, T/C [15] was 16.9%. It also gave a viability, T/C [16] of 15.6%, a viability, T/C [17] of 15.4% and a viability, T/C [18] of 14.6%. The viability, T/C [19] was 2.63%, the viability, T/C [20] was 2.2% and the viability, T/C [21] was 2.62%. It also gave a viability, T/C [22] of 2.67%, a viability, T/C [23] of 2.25% and a viability, T/C [24] of 2.13%. The viability, T/C [25] was 0.11%, the viability, T/C [26] was 0.12% and the viability, T/C [27] was 0.15%. For the same molecule, the viability, T/C [28] was 0.11%, the viability, T/C [29] was 0.11% and the viability, T/C [30] was 0.13%. For the same molecule, the viability, T/C [31] was 0.18%, the viability, T/C [32] was 0.27% and the viability, T/C [33] was 0.22%. The viability, T/C [34] was 0.18%, the viability, T/C [35] was 0.29% and the viability, T/C [36] was 0.19%. For the same molecule, the viability, T/C [37] was 0.11%, the viability, T/C [38] was 0.14% and the viability, T/C [39] was 0.17%. For the same molecule, the viability, T/C [40] was 0.21%, the viability, T/C [41] was 0.23% and the viability, T/C [42] was 0.19%.

For `O=C(c1cc(Cc2n[nH]c(=O)c3ccccc23)ccc1F)N1CCN(C(=O)C2CC2)CC1`, the viability, T/C (compound 0.0316 µM) was 87.7% and 101%, the viability, T/C (compound 0.1 µM) was 89% and 107% and the viability, T/C (compound 0.316 µM) was 81.1% and 74.2%. For the same molecule, the viability, T/C (compound 1 µM) was 70.4% and 86.8%, the viability, T/C (compound 3.16 µM) was 52.5% and 54% and the viability, T/C (compound 10 µM) was 34.7% and 36.2%. The IC50 (curve of compound) was 3680 nM and 4810 nM.
